This note sets out measurements from patent US20230416287A1, “Chemical Compounds” (GLAXOSMITHKLINE INTELLECTUAL PROPERTY DEVELOPMENT LIMITED, priority 2022, published 2023).

≈ marks a conversion by molar mass, not a printed value. A value given as a limit tells only on which side of the number the result lay.

In series [1] the target is human Nav1.8 (Homo sapiens, UniProt Q9Y5Y9). The experiment in a line: Nav1.8 inhibitory activity, QPatch 48 HTX electrophysiology in HEK293-Nav1.8 cells. The series is classed as cell-based. Details: expressed in transfected cells; host or cells: HEK293. The settings on record: half inactivation state voltage protocol (V1/2), HEK293 cells expressing human Nav1.8, read-out: [Nav1.8] pIC50 (converted). The protocol: Biological Assay 1: Nav1.8 Inhibitory Activity Human embryonic kidney 293 cells (HEK293) expressing human Nav1.8, human Navol and human TREK1 (HEK293-Nav1.8) were grown in T150 cell culture flasks at 37° C., 5% CO2 incubator. HEK293-Nav1.8 were passaged every 2-3 days when confluency reached 80-90% in T150 cell culture flasks.
Pharmacological assessment of compounds of the invention was performed using the QPatch 48 HTX electrophysiological platform. HEK293-Nav1.8 cells were prepared on the day of use by removing culture media, washing in DPBS, adding Accutase (2 mL to cover the surface, aspirate 1 mL then 1-2 minutes at 37° C.) followed by addition of CHO-SFM II to stop the enzyme digestion and in order to obtain a suspension of 3×10^6 cell/mL.
Compounds of the invention were prepared in an extracellular solution of the following composition: NaCl (145 mM), KCl (4 mM), CaCl2) (2 mM), MgCl (2 mM), HEPES (1 mM), Glucose (10 mM), pH 7.4 with NaOH Osmolality 300 mOsM/L. An intracellular solution of the following composition was used: CsF (115 mM), CsCl (20 mm), NaCl (5 mM), EGTA (10 mM), HEPES (10 mM), Sucrose (20 mM), pH 7.2 with CsOH Osmolality 310 mOsm/L.
Utilizing the voltage-clamp mode in the QPatch 48 HTX system a half inactivation state voltage protocol (V1/2) was used to determine pharmacological activity of compounds of the invention at Nav1.8 ion channels. A V1/2 protocol was utilized with the following voltage steps: a holding voltage of −100 mV was established followed by a 20 ms voltage step to 0 mV (P1), followed by an inactivating voltage step at −46 mV for 8 seconds, followed by a step to −100 mV for 20 ms, before a 20 ms step to 0 mV (P2), then returned to the holding voltage of −100 mV. This voltage protocol was repeated at a frequency of every 15 seconds, the current magnitude was quantified at the P2 step throughout the recording. Inhibition of the measured current amplitude with compounds of the invention was analyzed by fitting a 4-6 points dose-response curve allowing determination of the fifty percent inhibition concentration (IC50). P2 currents were normalized according to measurements made at baseline (Baseline, vehicle only), after compound (Input, at each test concentration), and after positive reference compound (FullResponse, to achieve complete block), fit to the following equation: […]
To assess current run-down over the course of the experiment vehicle-only wells were utilized and the normalized current with vehicle-only (n. IVEH) was determined. To correct the compound response for run-down, the currents were corrected according to the following formula:
[formula] • Compound inhibition was fitted to the following Hill Equation to estimate the half maximal inhibition concentration (IC50)
[formula] • where Y is the normalized run-down corrected inhibition relative to the vehicle control (equivalent to n. IRD_Correct), C the test compound concentration, IC50 the concentration of test compound to inhibit the sodium current by 50%, and h the Hill coefficient.
A general note: The patch-clamp technique gives a direct electrical read-out from membranes.

Series [2] is described as follows: CAD kinetic solubility. The series is classed as physicochemical. The note with it: phosphate buffered saline (PBS), aqueous buffer, PBS pH 7.4, 1 hour equilibration at room temperature, from DMSO stock, HPLC-CAD. The method, then:
Kinetic solubility was measured using Charged Aerosol Detector (CAD). The aqueous kinetic solubility at pH 7.4 was determined by measuring the concentration of solute in solution after precipitation from DMSO stock solution. The DMSO stock solution was diluted 20-fold with phosphate buffered saline (PBS) pH 7.4 and the solubility of the compound was measured after 1 hour equilibration at room temperature by HPLC-CAD.

Series [3] is described as follows: Rat IV/PO pharmacokinetic study. Type of series: in vivo, Han Wistar rats. The protocol:
An in vivo rat pharmacokinetic study was conducted to determine whether prodrug compounds of the invention are converted to the respective parent compound upon administration. The rat pharmacokinetic study was conducted with a crossover design on two study days with a one-day recovery period between each study day. Three male, dual catheterized (femoral vein and carotid artery) Han Wistar rats were used for the study. Each rat was also implanted with a gastric catheter for oral dose administration. Rats were dosed at 1 mg/kg by a 60-minute intravenous (IV) infusion (femoral vein cannula), then subsequently oral dosed at 2 mg/kg via the gastric cannula, with 48 hours between dosing sessions. Dose solutions of the compound of Example 4 were prepared in 20% Cavitron/5% DMSO/75% water (IV) and in 6% Cavitron/5% DMSO/89% water (PO) without pH adjustment. The dose solutions were filtered using a 0.22 μm filter. The pH of the final dosing solutions was 6.0.
During the intravenous study leg, blood samples were collected from the carotid artery catheter at target times of 15, 30, 60 (end of infusion), 65, 75, 90, 120, 240, 360, 480, 720, and 1440 minutes following the initiation of the intravenous infusion of the compound of Example 4. During the oral study leg, blood samples were collected prior to dosing and at target times of 15, 30, 60, 90, 120, 180, 240, 360, 480, 720, and 1440 minutes following oral administration. Blood samples (100 μL) were mixed with 100 μL phosphatase inhibitor, a 50 μL aliquot of the blood and inhibitor mixture was transferred to a non-heparinized tube and stored at approximately −80° C. until analyzed. The concentrations in the filtered dose solutions were confirmed by preparing stepwise dilutions first into 50% aqueous acetonitrile with 0.10% formic acid then into heparinized male Wistar Han blood: inhibitor to achieve determined nominal concentrations. Triplicate 50 μL aliquots were removed and were frozen and stored at approximately […] until analyzed by LC-MS/MS as described below. LC-MS/MS was used to quantify the compound of Example 4 and the corresponding parent compound of Example 4A in the biological samples generated in the above described in vivo study.
Samples were prepared by protein precipitation followed by LC-MS/MS analysis employing positive-mode ionization against a set of calibration standards for the compounds prepared in the same matrix. Pharmacokinetic parameters for the study were derived from the concentration versus time profiles. Key pharmacokinetic parameters such as AUC0-∞. (extrapolated area under the blood concentration-time curve), AUC0-t (area under the blood concentration-time curve to the last time point with quantifiable drug), Cmax (maximum concentration), Tmax (time Cmax is achieved), CL (systemic blood clearance), Vdss (steady-state volume of distribution), MRT (mean residence time), and t1/2 (half-life) were determined for the compound of Example 4. The key pharmacokinetic parameters such as AUC0-∞, AUC0-t, Cmax, Tmax, MRT, and t1/2 (half-life) were determined for the parent compound Example 4A. Descriptive statistical data of pharmacokinetic parameters were calculated, including the mean and standard deviation (SD) using Microsoft Excel. The data are shown below in Tables 5A and 5B. Data are reported as mean±SD (N=3).

The mark [4] stands for this setting: male, Han Wistar, prodrug Example 4 in blood, intravenous infusion of Example 4, 1 mg/kg, mean ± SD, N=3.
[5] abbreviates: male, Han Wistar, prodrug Example 4 in blood, intravenous infusion, 1 mg/kg, mean ± SD, N=3.

Chain of human Nav1.8 (Q9Y5Y9 whole entry): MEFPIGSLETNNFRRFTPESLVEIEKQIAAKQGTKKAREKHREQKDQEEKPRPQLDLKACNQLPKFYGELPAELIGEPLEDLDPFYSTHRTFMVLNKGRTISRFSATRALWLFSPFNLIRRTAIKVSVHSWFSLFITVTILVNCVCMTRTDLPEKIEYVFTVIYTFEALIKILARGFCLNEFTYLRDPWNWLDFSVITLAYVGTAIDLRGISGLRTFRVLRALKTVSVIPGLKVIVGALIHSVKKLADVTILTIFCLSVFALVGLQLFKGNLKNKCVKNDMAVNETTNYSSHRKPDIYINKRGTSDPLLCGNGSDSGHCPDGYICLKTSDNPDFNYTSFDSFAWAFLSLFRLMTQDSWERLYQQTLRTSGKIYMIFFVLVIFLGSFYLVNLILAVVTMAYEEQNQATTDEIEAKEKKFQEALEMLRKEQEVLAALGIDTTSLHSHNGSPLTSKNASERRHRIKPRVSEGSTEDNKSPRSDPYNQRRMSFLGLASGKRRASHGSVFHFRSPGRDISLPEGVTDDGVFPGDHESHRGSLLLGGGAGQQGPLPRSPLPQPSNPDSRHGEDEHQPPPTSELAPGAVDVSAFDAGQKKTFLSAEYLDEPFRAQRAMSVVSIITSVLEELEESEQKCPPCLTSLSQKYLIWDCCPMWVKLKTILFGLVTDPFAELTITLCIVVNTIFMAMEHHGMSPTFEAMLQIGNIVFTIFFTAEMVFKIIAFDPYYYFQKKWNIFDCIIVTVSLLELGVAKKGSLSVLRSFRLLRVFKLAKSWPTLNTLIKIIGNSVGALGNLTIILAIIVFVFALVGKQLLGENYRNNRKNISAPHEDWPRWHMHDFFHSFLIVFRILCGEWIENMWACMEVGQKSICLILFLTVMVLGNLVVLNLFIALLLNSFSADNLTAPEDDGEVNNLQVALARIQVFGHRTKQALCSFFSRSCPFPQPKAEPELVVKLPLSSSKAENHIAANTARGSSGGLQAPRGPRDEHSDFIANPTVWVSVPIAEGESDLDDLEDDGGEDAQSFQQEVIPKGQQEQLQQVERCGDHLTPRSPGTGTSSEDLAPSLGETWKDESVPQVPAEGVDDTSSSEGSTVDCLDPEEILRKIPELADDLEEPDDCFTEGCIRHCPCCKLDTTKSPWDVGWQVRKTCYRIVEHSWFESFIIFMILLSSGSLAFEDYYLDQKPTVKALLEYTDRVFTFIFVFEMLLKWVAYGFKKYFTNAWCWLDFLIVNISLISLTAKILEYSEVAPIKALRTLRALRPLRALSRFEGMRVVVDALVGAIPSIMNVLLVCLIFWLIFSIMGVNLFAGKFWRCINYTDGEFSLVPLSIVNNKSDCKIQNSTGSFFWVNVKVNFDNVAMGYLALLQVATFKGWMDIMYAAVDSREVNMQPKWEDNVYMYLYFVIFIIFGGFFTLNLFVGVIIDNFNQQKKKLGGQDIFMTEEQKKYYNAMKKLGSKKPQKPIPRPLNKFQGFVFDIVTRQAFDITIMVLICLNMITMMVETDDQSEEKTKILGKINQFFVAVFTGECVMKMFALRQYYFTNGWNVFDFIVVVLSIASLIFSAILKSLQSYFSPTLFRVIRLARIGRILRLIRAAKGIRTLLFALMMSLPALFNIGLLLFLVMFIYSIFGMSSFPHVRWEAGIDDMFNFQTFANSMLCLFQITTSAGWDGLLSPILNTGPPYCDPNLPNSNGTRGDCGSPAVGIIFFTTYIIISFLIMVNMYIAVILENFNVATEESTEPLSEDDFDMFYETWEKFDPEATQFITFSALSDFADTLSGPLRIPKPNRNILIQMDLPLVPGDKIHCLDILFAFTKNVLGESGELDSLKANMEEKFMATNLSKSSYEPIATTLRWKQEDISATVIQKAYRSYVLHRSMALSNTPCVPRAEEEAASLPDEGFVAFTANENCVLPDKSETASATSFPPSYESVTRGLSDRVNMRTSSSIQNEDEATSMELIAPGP

`Cc1cc(F)ccc1N1CN(c2ccc(=O)n(COP(=O)(O)O)c2C)C(=O)c2cc(C(F)(F)F)c(F)cc21` [Example 1, (5-(7-fluoro-1-(4-fluoro-2-methylphenyl)-4-oxo-6-(trifluoromethyl)-1,4-dihydroquinazolin-3(2H)-yl)-6-methyl-2-oxopyridin-1(2H)-yl)methyl dihydrogen phosphate]: the IC50 in series [1] was 31.6 nM. In addition, in series [2], the solubility – broadly, the dissolved amount per volume that the medium holds – at 1 h was no less than 192 µg/mL.

Regarding `Cc1cc(F)ccc1N1CN(c2ccc(=O)[nH]c2C)C(=O)c2cc(C(F)(F)F)c(F)cc21` [Example 1A, 7-fluoro-1-(4-fluoro-2-methylphenyl)-3-(2-methyl-6-oxo-1,6-dihydropyridin-3-yl)-6-(trifluoromethyl)-2,3-dihydroquinazolin-4(1H)-one], the IC50 in series [1] was 10 nM. This compound displayed a solubility at 1 h in series [2] of 32 µg/mL (≈ 71.2 µM).

For `Cc1cc(OC(F)(F)F)ccc1N1CN(c2cc(C)c(=O)n(COP(=O)(O)O)c2C)C(=O)c2cc(C(F)(F)F)cnc21` [Example 2, (3,6-dimethyl-5-(1-(2-methyl-4-(trifluoromethoxy)phenyl)-4-oxo-6-(trifluoromethyl)-1,4-dihydropyrido[2,3-d]pyrimidin-3(2H)-yl)-2-oxopyridin-1(2H)-yl)methyl dihydrogen phosphate], in series [1], the IC50 is 501 nM. For the same compound, the solubility at 1 h in series [2] is no less than 217 µg/mL.

As for `Cc1cc(OC(F)(F)F)ccc1N1CN(c2cc(C)c(=O)[nH]c2C)C(=O)c2cc(C(F)(F)F)cnc21` [Example 2A, 3-(2,5-dimethyl-6-oxo-1,6-dihydropyridin-3-yl)-1-(2-methyl-4-(trifluoromethoxy)phenyl)-6-(trifluoromethyl)-2,3-dihydropyrido[2,3-d]pyrimidin-4(1H)-one], in series [1], the IC50 was 20 nM. The same compound had a solubility at 1 h in series [2] of 56 µg/mL (≈ 109 µM).

Take `Cc1c(N2CN(c3ccc(=O)n(COP(=O)(O)O)c3C)C(=O)c3cc(C(F)(F)F)ncc32)ccc(F)c1F` [Example 3, (5-(1-(3,4-Difluoro-2-methylphenyl)-4-oxo-6-(trifluoromethyl)-1,4-dihydropyrido[3,4-d]pyrimidin-3(2H)-yl)-6-methyl-2-oxopyridin-1(2H)-yl)methyl dihydrogen phosphate]: the IC50 in series [1] was 1260 nM. This compound also showed a solubility at 1 h in series [2] of 224 µg/mL.

Consider `Cc1[nH]c(=O)ccc1N1CN(c2ccc(F)c(F)c2C)c2cnc(C(F)(F)F)cc2C1=O` [Example 3A, 1-(3,4-difluoro-2-methylphenyl)-3-(2-methyl-6-oxo-1,6-dihydropyridin-3-yl)-6-(trifluoromethyl)-2,3-dihydropyrido[3,4-d]pyrimidin-4(1H)-one], for which, in series [1], the IC50 is 100 nM. In series [2], this compound displayed a solubility at 1 h of no less than 210 µg/mL.

As for `Cc1c(N2CN(c3ccc(=O)n(COP(=O)(O)O)c3C)C(=O)c3cc(F)c(Cl)cc32)ccc(F)c1F` [Example 4, (5-(7-chloro-1-(3,4-difluoro-2-methylphenyl)-6-fluoro-4-oxo-1,4-dihydroquinazolin-3(2H)-yl)-6-methyl-2-oxopyridin-1(2H)-yl)methyl dihydrogen phosphate], the IC50 in series [1] is 31.6 nM. For the same compound, the Vd in series [3] (male, Han Wistar, blood, prodrug Example 4, intravenous infusion, 1 mg/kg, mean ± SD, N=3, read-out: Vdss) was determined as 0.687 ± 0.284 L/kg. Besides, the peak concentration (Cmax) (usually the peak of the concentration-time curve) in series [3] (male, Han Wistar, prodrug Example 4 in blood, 60-minute intravenous infusion of Example 4, 1 mg/kg (Table 5A: 1.2 ± 0.1 mg/kg), mean ± SD, N=3) is 238 ± 45 ng/mL. Besides, in series [3] (setting [4]), the MRT (usually a mean duration of stay, worked out from the concentration-time curve) was 6 ± 1.2 min and the half-life (usually the time in which the quantity being followed falls by half) was 40.2 ± 17.4 min. In series [3] (setting [5]), the AUC(0-inf) (commonly the area under the concentration-time curve extrapolated to infinity) is 197 ± 44 ng·h/mL and the exposure AUC(0-t) (commonly the area under the concentration-time curve up to a stated or last time point) was determined as 197 ± 284 ng·h/mL. In series [3] (male, Han Wistar, systemic blood clearance of prodrug Example 4, intravenous infusion, 1 mg/kg, mean ± SD, N=3), the clearance was 110 ± 33 mL/min/kg. Further, the “quantifiable concentrations following oral administration” value in series [3] (prodrug Example 4 in blood, oral via gastric cannula, 2 mg/kg (Table 5A: 3.0 ± 0.0 mg/kg)) was “There were no”. Moreover, the solubility at 1 h in series [2] amounted to 157 µg/mL.

In the case of `Cc1cc(F)ccc1N1CN(c2ccc(=O)n(COP(=O)(O)O)c2C)C(=O)c2cc(F)c(Cl)cc21` [Example 5, (5-(7-Chloro-6-fluoro-1-(4-fluoro-2-methylphenyl)-4-oxo-1,4-dihydroquinazolin-3(2H)-yl)-6-methyl-2-oxopyridin-1(2H)-yl)methyl dihydrogen phosphate], the IC50 in series [1] was 63.1 nM. The solubility at 1 h in series [2] is 135 µg/mL.
